# From patent publication US20240246913A1, “2-CARBOXYL-INDOLE INHIBITORS OF METALLO-BETA-LACTAMASES” (Oxford University Innovation Limited, priority 2021, published 2024)
# Columns and labels:
# VIM-1 = VIM-1 (Pseudomonas aeruginosa, UniProt A0A0F7KYQ8); experiment: MBL inhibition, FC-5 fluorescence assay, VIM-1; type: biochemical; settings: FC-5 cephalosporin substrate, ranges of obtained pIC50, read-out: pIC50 VIM-1 (converted)
# Summary of the method: (§1)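 Compound dilutions are incubated with enzyme and FC-5; the released fluorophore is read kinetically at ex 380/em 460 nm. Initial velocities are normalized and fitted (log inhibitor vs response, variable slope).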
# [1] = Plasma protein binding, equilibrium dialysis, mouse plasma; type: in vitro ADME; settings: pH 7.4, equilibrium dialysis (RED) 4 hours at 37° C., read-out: Plasma protein binding, fu, Mouse
# Description: (§2) The fraction of unbound compound (fu) in plasma from human or other animal species was determined by equilibrium dialysis at 37° C. for 4 hours using the Rapid Equilibrium Dialysis (RED) device (ThermoFisher Scientific). The test compound at a concentration of 10 μM was added to plasma and dialyzed against isotonic phosphate buffer (67 mM, pH 7.4) over 4 hours at 37° C. After dialysis, compound concentrations in buffer and plasma were quantified by LC-MS/MS. In parallel the stability of the compound in plasma was determined by incubating drug-spiked plasma (10 μM) at 37° C. for 4 hours, meanwhile the control plasma sample was kept in the freezer. The concentration of the compound in both samples was quantified by LC-MS/MS (Waters Corp, Milford, MA, USA).
# VIM-2 = VIM-2 (Escherichia coli, UniProt Q5U7L7); experiment: MBL inhibition, FC-5 fluorescence assay, VIM-2; type: biochemical; settings: FC-5 cephalosporin substrate, ranges of obtained pIC50, read-out: pIC50 VIM-2 (converted)
# Summary of the method: as §1
# IMP-1 = IMP-1 (Serratia marcescens, UniProt P52699); experiment: MBL inhibition, FC-5 fluorescence assay, IMP-1; type: biochemical; settings: FC-5 cephalosporin substrate, fluorescence; ranges of obtained pIC50; read-out: pIC50 IMP-1 (converted)
# Summary of the method: as §1
# [2] = Plasma protein binding, equilibrium dialysis, human plasma; type: in vitro ADME; settings: pH 7.4, equilibrium dialysis (RED) 4 hours at 37° C., read-out: Plasma protein binding, fu, Human
# Description: as §2
# NDM-1 = NDM-1 (Klebsiella pneumoniae, UniProt C7C422); experiment: MBL inhibition, FC-5 fluorescence assay, NDM-1; type: biochemical; settings: FC-5 cephalosporin substrate, fluorescence; ranges of obtained pIC50; read-out: pIC50 NDM-1 (converted)
# Summary of the method: as §1
# Escherichia coli NDM-7 = experiment: Antibiotic susceptibility testing (MIC), EC NDM-7; type: cell-based; settings: agar or broth dilution (CLSI/EUCAST)
# Description: (§3) Antibiotic susceptibility testing was performed using the agar or broth dilution method, in line with the Clinical and Laboratory Standards Institute (CLSI) and European Committee on Antimicrobial Susceptibility Testing (EUCAST) requirements.
# [3] = tested on: Acinetobacter baumannii NDM-1; experiment: Antibiotic susceptibility testing (MIC), AB NDM-1; type: cell-based; settings: agar or broth dilution (CLSI/EUCAST)
# Description: as §3
# Escherichia coli NDM-1 = experiment: Antibiotic susceptibility testing (MIC), EC NDM-1; type: cell-based; settings: agar or broth dilution (CLSI/EUCAST)
# Description: as §3
# Chain of NDM-1 (C7C422 29-270, looked up, species assumed): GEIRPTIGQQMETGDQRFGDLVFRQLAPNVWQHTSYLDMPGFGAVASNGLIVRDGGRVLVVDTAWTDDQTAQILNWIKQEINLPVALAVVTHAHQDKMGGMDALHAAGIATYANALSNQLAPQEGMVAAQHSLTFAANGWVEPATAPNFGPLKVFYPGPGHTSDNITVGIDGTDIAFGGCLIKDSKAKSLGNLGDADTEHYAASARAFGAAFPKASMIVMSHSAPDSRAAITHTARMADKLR
# Chain of IMP-1 (P52699 19-246, looked up, species assumed): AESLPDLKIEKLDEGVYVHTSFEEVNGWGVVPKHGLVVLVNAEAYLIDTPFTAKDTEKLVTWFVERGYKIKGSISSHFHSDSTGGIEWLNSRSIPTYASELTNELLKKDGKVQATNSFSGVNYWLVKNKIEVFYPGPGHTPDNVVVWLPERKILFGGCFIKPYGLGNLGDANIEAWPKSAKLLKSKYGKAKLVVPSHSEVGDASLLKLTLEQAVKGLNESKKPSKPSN
Structure (SMILES),IC50 (VIM-1),"fraction unbound at 4 h, 10 μM [1]",IC50 (VIM-2),IC50 (IMP-1),"fraction unbound at 4 h, 10 μM [2]",IC50 (NDM-1),MIC values EC NDM-7 (Escherichia coli NDM-7),MIC values AB NDM-1 [3],MIC values EC NDM-1 (Escherichia coli NDM-1)
"CC(NS(C)(=O)=O)c1cccc2c(-c3cc(Cl)cc(Cl)c3)c(C(=O)O)[nH]c12 (centres unmarked) [IC-2, 3-(3,5-Dichlorophenyl)-7-(1-(methylsulfonamido)ethyl)-1H-indole-2-carboxylic acid]",> 10 nM,< 0.005,> 10 nM,> 10 nM,< 0.005,> 10 nM,–,–,–
"CC(c1cccc2c(-c3ccc(CS(C)(=O)=O)c(F)c3)c(C(=O)O)[nH]c12)N1C(=O)CN(CCCN)C1=O (centres unmarked) [IC-13, 7-[1-[3-(3-Aminopropyl)-2,5-dioxo-imidazolidin-1-yl]ethyl]-3-[3-fluoro-4-(methylsulfonylmethyl)phenyl]-1H-indole-2-carboxylic acid]",1 to 10 nM,0.005 to 0.05,> 10 nM,> 10 nM,0.05 to 0.25,< 0.1 nM,–,–,–
"C[C@@H](c1cccc2c(-c3ccc(=O)[nH]c3)c(C(=O)O)[nH]c12)N1C[C@]2(C[C@@H](CN)C2)OC1=O [IC-15, 7-((S)-1-((2S,4r)-2-(aminomethyl)-6-oxo-5-oxa-7-azaspiro[3.4]octan-7-yl)ethyl)-3-(6-oxo-1,6-dihydropyridin-3-yl)-1H-indole-2-carboxylic acid]",–,0.005 to 0.05,–,–,0.05 to 0.25,–,A (A = MIC values ≤ 1),C (C = MIC values > 8),B (B MIC values 2 ÷ 8)
"C[C@@H](c1cccc2c(-c3ccc(CS(C)(=N)=O)c(F)c3)c(C(=O)O)[nH]c12)N1C[C@]2(C[C@@H](CN)C2)OC1=O (stereo partly drawn) [IC-19, 7-((1S)-1-(2-(aminomethyl)-6-oxo-5-oxa-7-azaspiro[3.4]octan-7-yl)ethyl)-3-(3-fluoro-4-((S-methylsulfonimidoyl)methyl)phenyl)-1H-indole-2-carboxylic acid]",0.1 to 1 nM,0.05 to 0.25,0.1 to 1 nM,> 10 nM,> 0.25,< 0.1 nM,A (A = MIC values ≤ 1),B (B MIC values 2 ÷ 8),B (B MIC values 2 ÷ 8)
"C[C@@H](c1cccc2c(-c3c(F)cc(NS(C)(=O)=O)cc3F)c(C(=O)O)[nH]c12)N1C[C@]2(C[C@@H](CN)C2)OC1=O [IC-21, 7-((S)-1-((2S,4r)-2-(aminomethyl)-6-oxo-5-oxa-7-azaspiro[3.4]octan-7-yl)ethyl)-3-(2,6-difluoro-4-(methylsulfonamido)phenyl)-1H-indole-2-carboxylic acid]",> 10 nM,0.005 to 0.05,1 to 10 nM,> 10 nM,0.05 to 0.25,1 to 10 nM,B (B MIC values 2 ÷ 8),C (C = MIC values > 8),C (C = MIC values > 8)
"C[C@@H](c1cccc2c(-c3ccc4c(c3)CNC4=O)c(C(=O)O)[nH]c12)N1C[C@]2(C[C@@H](CN)C2)OC1=O [IC-22, 7-((S)-1-((2R,4s)-2-(aminomethyl)-6-oxo-5-oxa-7-azaspiro[3.4]octan-7-yl)ethyl)-3-(1-oxoisoindolin-5-yl)-1H-indole-2-carboxylic acid]",1 to 10 nM,0.005 to 0.05,< 0.1 nM,> 10 nM,0.05 to 0.25,0.1 to 1 nM,A (A = MIC values ≤ 1),B (B MIC values 2 ÷ 8),A (A = MIC values ≤ 1)
"C[C@@H](c1cccc2c(-c3ccc(NS(=O)(=O)C4COC4)c(F)c3)c(C(=O)O)[nH]c12)N1C[C@]2(C[C@@H](CN)C2)OC1=O [IC-24, 7-((S)-1-((2S,4r)-2-(aminomethyl)-6-oxo-5-oxa-7-azaspiro[3.4]octan-7-yl)ethyl)-3-(3-fluoro-4-(oxetane-3-sulfonamido)phenyl)-1H-indole-2-carboxylic acid]",1 to 10 nM,0.05 to 0.25,0.1 to 1 nM,> 10 nM,0.05 to 0.25,< 0.1 nM,A (A = MIC values ≤ 1),B (B MIC values 2 ÷ 8),A (A = MIC values ≤ 1)
"C[C@@H](c1cccc2c(-c3ccnc(N)c3)c(C(=O)O)[nH]c12)N1C[C@]2(C[C@@H](CN)C2)OC1=O [IC-34, 3-(2-Aminopyridin-4-yl)-7-[(1S)-1-[(2r,4r)-2-(aminomethyl)-6-oxo-5-oxa-7-azaspiro[3.4]octan-7-yl]ethyl]-1H-indole-2-carboxylic acid]",1 to 10 nM,–,1 to 10 nM,> 10 nM,> 0.25,> 10 nM,A (A = MIC values ≤ 1),C (C = MIC values > 8),B (B MIC values 2 ÷ 8)
"CNc1cc(-c2c(C(=O)O)[nH]c3c([C@H](C)N4C[C@]5(C[C@@H](CN)C5)OC4=O)cccc23)ccn1 [IC-35, 3-[2-(methylamino)pyridin-4-yl]-7-[(1S)-1-[(2r,4r)-2-(aminomethyl)-6-oxo-5-oxa-7-azaspiro[3.4]octan-7-yl]ethyl]-1H-indole-2-carboxylic acid]",1 to 10 nM,–,0.1 to 1 nM,> 10 nM,> 0.25,> 10 nM,A (A = MIC values ≤ 1),C (C = MIC values > 8),A (A = MIC values ≤ 1)
"CNc1ccc(-c2c(C(=O)O)[nH]c3c([C@H](C)N4C[C@]5(C[C@@H](CN)C5)OC4=O)cccc23)cn1 [IC-36, 3-[6-(methylamino)pyridin-3-yl]-7-[(1S)-1-[(2r,4r)-2-(aminomethyl)-6-oxo-5-oxa-7-azaspiro[3.4]octan-7-yl]ethyl]-1H-indole-2-carboxylic acid]",> 10 nM,–,> 10 nM,> 10 nM,0.05 to 0.25,> 10 nM,A (A = MIC values ≤ 1),B (B MIC values 2 ÷ 8),A (A = MIC values ≤ 1)
"C[C@@H](c1cccc2c(-c3ccc(N)nc3)c(C(=O)O)[nH]c12)N1C[C@]2(C[C@@H](CN)C2)OC1=O [IC-37, 3-(6-aminopyridin-3-yl)-7-[(1S)-1-[(2r,4r)-2-(aminomethyl)-6-oxo-5-oxa-7-azaspiro[3.4]octan-7-yl]ethyl]-1H-indole-2-carboxylic acid]",> 10 nM,–,1 to 10 nM,> 10 nM,0.05 to 0.25,1 to 10 nM,A (A = MIC values ≤ 1),B (B MIC values 2 ÷ 8),A (A = MIC values ≤ 1)
"C[C@@H](c1cccc2c(-c3ccncc3)c(C(=O)O)[nH]c12)N1C[C@]2(C[C@@H](CN)C2)OC1=O [IC-38, 3-(pyridin-4-yl)-7-[(1S)-1-[(2r,4r)-2-(aminomethyl)-6-oxo-5-oxa-7-azaspiro[3.4]octan-7-yl]ethyl]-1H-indole-2-carboxylic acid]",1 to 10 nM,–,0.1 to 1 nM,> 10 nM,0.005 to 0.05,0.1 to 1 nM,A (A = MIC values ≤ 1),B (B MIC values 2 ÷ 8),A (A = MIC values ≤ 1)
"C[C@@H](c1cccc2c(-c3cccnc3)c(C(=O)O)[nH]c12)N1C[C@]2(C[C@@H](CN)C2)OC1=O [IC-39, 3-(pyridin-3-yl)-7-[(1S)-1-[(2r,4r)-2-(aminomethyl)-6-oxo-5-oxa-7-azaspiro[3.4]octan-7-yl]ethyl]-1H-indole-2-carboxylic acid]",0.1 to 1 nM,–,1 to 10 nM,> 10 nM,0.005 to 0.05,0.1 to 1 nM,A (A = MIC values ≤ 1),B (B MIC values 2 ÷ 8),A (A = MIC values ≤ 1)
"CC(OCC1CC[N+](C)(C)CC1)c1cccc2c(-c3ccc(CS(C)(=O)=O)c(F)c3)c(C(=O)[O-])[nH]c12 (centres unmarked) [IC-90, 7-(1-((1,1-Dimethylpiperidin-1-ium-4-yl)methoxy)ethyl)-3-(3-fluoro-4-((methylsulfonyl)methyl)phenyl)-1H-indole-2-carboxylate]",1 to 10 nM,0.05 to 0.25,1 to 10 nM,> 10 nM,> 0.25,1 to 10 nM,–,–,–
